In ChEMBL document CHEMBL1201862, “PubChem BioAssay data set” (2004):
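96-well plates; 48 h exposure; 5 concentrations. Endpoints by linear interpolation between flanking doses. Not reached: highest tested concentration assigned. GI50 = concentration required for 50% inhibition of growth.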 Calls of active or inactive are those of the source. Rule as the data show it: active = GI50 up to about 1.1 µM and inactive = higher.

Columns and labels:
Assay in all cases: NCI tumour cell line growth inhibition, 48 h
BT-549 = tested on: BT-549
DLD-1 = tested on: DLD-1
DMS-114 = tested on: DMS-114
DMS-273 = tested on: DMS-273
RXF 631 = tested on: RXF 631
XF498 = tested on: XF498
LXFL 529 = tested on: LXFL 529
SNB-78 = tested on: SNB-78
HOP-18 = tested on: HOP-18

## CCCCCNC(=O)c1cc2cc(CCl)ccc2oc1=O
BT-549
  GI50: 6.49 µM (inactive)

## CC(C)=CC1C(C(=O)Oc2ccccc2C(C)C)C1(C)C (centres undefined)
BT-549
  GI50: 30 µM (inactive)

## CC(C)(C)[Si](C)(C)OCC1OC(n2cnc3c(N)ncnc32)C(O)C1O (centres undefined)
BT-549
  GI50: 69.5 µM (inactive)

## COC(=O)/C=C(/C)n1nc2ccccc2n1
BT-549
  GI50: > 100 µM (inactive)

## CCN(/N=C1\CC2C=CCN(C2)C(=O)Cc2c1[nH]c1ccccc21)S(=O)(=O)c1ccc(C)cc1 (centres undefined)
DLD-1
  GI50: 53.3 µM (inactive)
DMS-114
  GI50: 64.6 µM (inactive)
DMS-273
  GI50: 62.4 µM (inactive)
RXF 631
  GI50: 96.4 µM (inactive)
XF498
  GI50: > 100 µM (inactive)

## C=C1C(=O)OC2CC(C)C(/C=C/C(C)=O)=CCC12 (centres undefined)
BT-549
  GI50: > 100 µM (inactive)

## C=C(c1ccccc1)c1cc2c(=O)[nH]ccc2n1C
DLD-1
  GI50: 31.9 µM (inactive)
DMS-114
  GI50: 19.1 µM (inactive)
DMS-273
  GI50: 27.5 µM (inactive)
LXFL 529
  GI50: 35.6 µM (inactive)
SNB-78
  GI50: 48.5 µM (inactive)
XF498
  GI50: 30.5 µM (inactive)

## Cc1ccc2nc(/C=N/c3ccc(Cl)cc3)cc(C)c2c1
BT-549
  GI50: 13.9 µM (inactive)

## CC(O)c1cc2c(s1)C(=O)c1scc(C(C)O)c1C2=O (centres undefined)
BT-549
  GI50: 0.211 µM (active)

## Cc1ccc(S(=O)(=O)NC(=O)C2=C3SCCN3C(=O)N(S(=O)(=O)c3ccc(C)cc3)C2c2ccccc2)cc1 (centres undefined)
BT-549
  GI50: > 100 µM (inactive)

## COc1cc(-c2nn3c(=O)n(-c4ccc(Cl)cc4)c(=O)nc3s2)cc(OC)c1OC
DLD-1
  GI50: > 86.9 µM (inactive)
DMS-273
  GI50: 23.2 µM (inactive)
HOP-18
  GI50: 57 µM (inactive)
RXF 631
  GI50: 48.1 µM (inactive)
SNB-78
  GI50: 19.4 µM (inactive)

## OC(CCN1CCN(CCOC(c2ccc(F)cc2)c2ccc(F)cc2)CC1)c1ccccc1 (centres undefined)
BT-549
  GI50: 14.1 µM (inactive)

## CC(C)(/N=N/C(C)(C)C(=N)N)C(=N)N
BT-549
  GI50: > 100 µM (inactive)

## C=C1CC[C@H]2C(C)=CC[C@H]3C(=C)C(=O)O[C@@H]3[C@@H]12 [EREMANTHIN]
BT-549
  GI50: > 100 µM (inactive)

## N#CC(Cl)CS(=O)(=O)c1ccccc1 (centres undefined)
BT-549
  GI50: 16.7 µM (inactive)
DLD-1
  GI50: 1.93 µM (inactive)
DMS-114
  GI50: 4.11 µM (inactive)
HOP-18
  GI50: 8.61 µM (inactive)
SNB-78
  GI50: 21.1 µM (inactive)
XF498
  GI50: 2.62 µM (inactive)

## CCOC(=O)/C=C(/C(=O)OCC)n1cc(C)c(=O)[nH]c1=O
BT-549
  GI50: 10.3 µM (inactive)

## CCc1ccccc1NC(=O)C1=C(C)NC(C)=C(C(=O)Nc2ccccc2CC)C1c1cccc([N+](=O)[O-])c1
DLD-1
  GI50: 19.9 µM (inactive)
DMS-114
  GI50: 30.1 µM (inactive)
LXFL 529
  GI50: 26.2 µM (inactive)
RXF 631
  GI50: 46.3 µM (inactive)
SNB-78
  GI50: 43.5 µM (inactive)

## CCC1C(c2cc(OC)c(OC)c(OC)c2)c2cc3c(cc2OC1N1CCOCC1)OCO3 (centres undefined)
BT-549
  GI50: 2.99 µM (inactive)

## c1ccc(/C(=N/Nc2cnccn2)c2ncccn2)cc1
BT-549
  GI50: > 100 µM (inactive)

## c1ccc(CCN2CCOCC2)nc1
BT-549
  GI50: > 100 µM (inactive)

## c1cncc(CSc2nc3ccccc3nc2-c2cccs2)c1
DLD-1
  GI50: > 100 µM (inactive)
DMS-273
  GI50: > 100 µM (inactive)
HOP-18
  GI50: > 100 µM (inactive)
SNB-78
  GI50: > 100 µM (inactive)
XF498
  GI50: 35.3 µM (inactive)

## Cc1ccnc2nc(-c3cccc(Cl)c3)cc(O)c12
BT-549
  GI50: 1.65 µM (inactive)

## O=[N+]([O-])C1C2C=CC(C2)[C@H]1c1ccco1 (some centres undefined)
DLD-1
  GI50: > 100 µM (inactive)
DMS-114
  GI50: > 100 µM (inactive)
DMS-273
  GI50: > 100 µM (inactive)
LXFL 529
  GI50: > 100 µM (inactive)
SNB-78
  GI50: > 100 µM (inactive)
XF498
  GI50: > 100 µM (inactive)

## OC(COc1ccccc1)CN1CCCCC1 (centres undefined)
BT-549
  GI50: > 100 µM (inactive)

## COc1c(C)c(C/C=C(\C)CCCC(C)CCCC(C)CCCC(C)C)c(OC)c2ccccc12 (centres undefined)
BT-549
  GI50: > 100 µM (inactive)

## Cc1cc(O)nc(NN2C(Cl)C(=O)C2c2ccc(O)cc2)n1 (centres undefined)
BT-549
  GI50: 9.1 µM (inactive)
DMS-114
  GI50: 7.35 µM (inactive)
DMS-273
  GI50: 5.32 µM (inactive)
HOP-18
  GI50: 14.6 µM (inactive)
LXFL 529
  GI50: 10.3 µM (inactive)
SNB-78
  GI50: 5.87 µM (inactive)

## COc1ccc(-c2oc(/C=N/c3ccccc3)c([N+](=O)[O-])c2-c2ccc(OC)c(OC)c2)cc1OC
DLD-1
  GI50: > 100 µM (inactive)
DMS-114
  GI50: > 100 µM (inactive)
DMS-273
  GI50: > 100 µM (inactive)
LXFL 529
  GI50: > 100 µM (inactive)
SNB-78
  GI50: > 100 µM (inactive)
XF498
  GI50: > 100 µM (inactive)

## Cc1ccc(NC(=S)C#N)cc1Cl
BT-549
  GI50: 53 µM (inactive)

## COc1cc(CSc2ccc(O)cc2)cc(OC)c1OC
BT-549
  GI50: 16.4 µM (inactive)

## CO/N=C(/C(=O)Nc1c[n+](CC(=O)[O-])cs1)c1csc(N)n1
DLD-1
  GI50: > 100 µM (inactive)
DMS-273
  GI50: > 100 µM (inactive)
HOP-18
  GI50: > 100 µM (inactive)
LXFL 529
  GI50: > 100 µM (inactive)
SNB-78
  GI50: > 100 µM (inactive)
XF498
  GI50: > 100 µM (inactive)

## N#CC(C(=O)C(=O)Nc1ccccc1)c1ccccc1 (centres undefined)
DLD-1
  GI50: > 100 µM (inactive)
DMS-273
  GI50: > 100 µM (inactive)
LXFL 529
  GI50: > 100 µM (inactive)
XF498
  GI50: > 100 µM (inactive)

## COc1ccc2c(c1)c1c(n2CCN(C)C)-c2cccc(OC)c2CC1
BT-549
  GI50: 20 µM (inactive)

## COc1cc2c(c(OC3OC(CO)C(O)C(O)C3O)c1)C(=O)CC(c1ccc(O)cc1)O2 (centres undefined)
BT-549
  GI50: > 100 µM (inactive)

## Cc1cc(Br)ccc1/N=N/C1C(=O)ON=C1c1ccccc1 (centres undefined)
DLD-1
  GI50: 90.2 µM (inactive)
DMS-114
  GI50: 65.6 µM (inactive)
DMS-273
  GI50: > 100 µM (inactive)
HOP-18
  GI50: > 100 µM (inactive)
LXFL 529
  GI50: 69.5 µM (inactive)
RXF 631
  GI50: 51.6 µM (inactive)
SNB-78
  GI50: > 100 µM (inactive)
